{"source": "patent US20250295668A1", "about": "“METHODS FOR INDUCING COLANIC ACID BIOSYNTHESIS” (priority 2024, published 2025)", "key": {"cps operon": {"system": "cps operon", "experiment": "Disk diffusion assay for cps induction, SG20781 cpsB::lacZ reporter", "format": "cell-based, E. coli", "conditions": "SG20781, filter paper disks 10 or 100 μg, 24 hours at 37° C.", "procedure": "For antibiotic screening targeting cps expression, the SG20781 strain (MC4100 lon+cpsB10::lacZ Mu-immλ) was used. The bacteria were cultured overnight at 37° C. in Luria-Broth (LB) medium and evenly plated on X-gal (40 μg/mL) supplemented LB agar plates, and incubated overnight.\nE. coli strain SG20781 was used to assess antibiotic cps induction via disk diffusion as previously described [PMID: 14553918]. In brief, an overnight bacteria culture was spread onto LB agar containing 0.1 mg ml-1 5-bromo-4-chloro-3-indolyl-β-D-galactoside (X-gal). […] The soaked filter papers were placed onto the bacteria-seeding plates and incubated for 24 hours at 37° C.\nCertain β-lactam antibiotics trigger the overexpression of the cps operon in E. coli [PMID: 14553918]. To validate this finding, a disk diffusion assay was performed using SG20781, an E. coli strain that harbors a LacZ reporter for the cps operon transcriptional regulation. Using a colorimetric assay, an increased level of […] reacts with X-gal, resulting in an intensified blue coloration as a result of the transcriptional up-regulation of the cps operon."}, "PBP4": {"target": "PBP4 (Escherichia coli, UniProt P24228)", "conditions": "literature, PMID 25733506; cited from earlier work"}, "wildtype E. coli": {"system": "wildtype E. coli", "experiment": "Colanic acid measurement (fucose quantification) in wildtype E. coli culture medium", "format": "cell-based", "procedure": "For colanic acid quantification, E. coli Keio mutants and the parental strain BW25113 were cultured overnight at 37° C. in M9 minimum medium [PMID: 28436966]. Bacteria were then removed by centrifugation and filtered for colanic acid measurement.\nThe desired bacterial strain was first inoculated and cultured in M9 minimum medium overnight at 37° C. to obtain the seeding culture. The OD 600 was measured, and the seeding bacteria were diluted to OD600=0.02 in M9 minimum medium for another 16 hours. After the incubation, bacterial cultures were collected in 50 mL tubes, spun down at 4,000 g at 4° C. for 30 min, filtered, and 25 mL of supernatant was collected per 50 ml conical tube. Ice-cold 100% ethanol (EtOH) was added to make a final 50% EtOH solution for precipitation, and the mixture was kept at 4° C. overnight. Once precipitation occurred, the liquid was carefully removed after centrifugation at 4,000 g at 4° C. for 50 min. The pellet was washed once with cold 80% EtOH and then air-dried in a hood. The pellet from every 50 mL culture was resuspended in 500 μL distilled H2O. The solution was sonicated for 60 minutes at 37° C., followed by centrifugation at 4000 g at 4° C. for 10 minutes. A 200 μL sample was mixed with 30 μL hydrochloric acid (320331-500 mL, Sigma-Aldrich) and boiled for 2 hours. Subsequently, 60 μL 5M NaOH and 150 μL NaHCO3/NaOH buffer were added to reach a pH of 6-8, calibrated by 1M HCl or NaOH solutions. The fucose quantification assay was then carried out using a K-FUCOSE kit (Megazyme) according to the manufacturer's protocol.\nNext, colanic acid in the bacteria culture medium was quantified via monosaccharide-fucose-from acid-hydrolyzed polysaccharide precipitates. […] Calculations were performed to determine the equivalent dosage by weight in a mammalian subject. Briefly, a typical mouse consumes 5-10 ml of water per day and weighs between 30-40 g. Using the 1.8 μg/mL concentration, a lower bound of 0.225 mg/kg (0.0018 mg/mL×5 ml[…]0.04 kg) and a higher bound of 0.6 mg/kg (0.0018 mg/mL×10 ml÷0.03 kg) were identified. […] In wild-type bacteria treated with cephaloridine and Alon E. coli mutants colanic acid production increased during the exponential growth phase and remained elevated in the stationary phase (FIG. 1D)."}}, "data": [{"smiles": "CC1(C)S[C@@H]2[C@H](NC(=O)C(C(=O)O)c3ccccc3)C(=O)N2[C@H]1C(=O)O", "note": "(stereo partly shown) [carbenicillin]", "values": [{"measurement": "cps induction (blue coloration)", "setting": "cps operon", "result": "promote various shades of blue coloration"}]}, {"smiles": "CC1(C)S[C@@H]2[C@H](NC(=O)[C@H](N)c3ccccc3)C(=O)N2[C@H]1C(=O)O", "note": "[ampicillin]", "values": [{"measurement": "cps induction (blue coloration)", "setting": "cps operon", "result": "promote various shades of blue coloration"}, {"measurement": "affinity for PBP4", "setting": "PBP4", "result": "higher affinity for PBP4"}]}, {"smiles": "CC(=O)OCC1=C(C(=O)O)N2C(=O)[C@@H](NC(=O)Cc3cccs3)[C@H]2SC1", "note": "[cephalothin]", "values": [{"measurement": "cps induction (blue coloration)", "setting": "cps operon", "result": "promote various shades of blue coloration"}, {"measurement": "colanic acid production vs untreated wildtype control", "setting": "wildtype E. coli; cephalothin 0.625 μg/mL", "result": 3.5, "unit": "fold"}]}, {"smiles": "CC1(C)S[C@@H]2[C@H](NC(=O)Cc3ccccc3)C(=O)N2[C@H]1C(=O)O", "note": "[penicillin G]", "values": [{"measurement": "cps induction (blue coloration)", "setting": "cps operon", "result": "promote various shades of blue coloration"}, {"measurement": "affinity for PBP4", "setting": "PBP4", "result": "higher affinity for PBP4"}, {"measurement": "colanic acid production vs untreated wildtype control", "setting": "wildtype E. coli; penicillin G 5 μg/mL", "result": 3.25, "unit": "fold"}]}, {"smiles": "CO/N=C(\\C(=O)N[C@@H]1C(=O)N2C(C(=O)O)=C(COC(N)=O)CS[C@H]12)c1ccco1", "note": "[cefuroxime]", "values": [{"measurement": "cps induction (blue coloration)", "setting": "cps operon", "result": "promote various shades of blue coloration"}]}, {"smiles": "Cc1nnc(SCC2=C(C(=O)O)N3C(=O)[C@@H](NC(=O)Cn4cnnn4)[C@H]3SC2)s1", "note": "[cefazolin]", "values": [{"measurement": "cps induction (blue coloration)", "setting": "cps operon", "result": "promote various shades of blue coloration"}]}]}
